One block for each molecule: values may come before it. Calls of active or inactive are those of the source. The calls are words filed in the database; no cut-off is given here.
Tests used:
[1] = target: T1, N-formyl peptide receptor 2 (Homo sapiens) (UniProt P25090); assay: Induction of calcium release in human FPR2 receptor-expressed HEK cell at 10 uM measured after second challenge by cytosolic-free calcium assay; assay type: functional, cell-based; settings: HEK293
T1 sequence (whole entry): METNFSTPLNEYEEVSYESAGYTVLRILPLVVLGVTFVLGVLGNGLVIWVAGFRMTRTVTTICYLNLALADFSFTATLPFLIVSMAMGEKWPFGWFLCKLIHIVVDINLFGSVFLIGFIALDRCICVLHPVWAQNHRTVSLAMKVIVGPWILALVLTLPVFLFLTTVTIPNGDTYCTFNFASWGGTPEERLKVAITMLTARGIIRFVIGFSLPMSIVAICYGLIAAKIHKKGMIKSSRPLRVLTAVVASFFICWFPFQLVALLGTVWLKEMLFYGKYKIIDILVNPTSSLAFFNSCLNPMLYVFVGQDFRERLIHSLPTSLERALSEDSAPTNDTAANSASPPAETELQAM

[2] = tested on: Neutrophil; assay: Induction of […]-induced migration in human neutrophils preincubated at 10 uM after 45 mins by chemotaxis assay; assay type: functional, cell-based
[3] = target: T1, N-formyl peptide receptor 2 (Homo sapiens); assay: Induction of calcium release in human FPR2 receptor-expressed HEK cell assessed as calcium release through Cav1.2 channel at 10 uM by cytosolic-free calcium assay in presence of 30 uM ATP; assay type: functional, cell-based; settings: HEK293
[4] = target: T1, N-formyl peptide receptor 2 (Homo sapiens); assay: Induction of human FPR2 receptor-expressed HEK cell migration at 10 uM; settings: HEK293
[5] = target: T2, N-formyl peptide receptor 2 (Homo sapiens, UniProt P25090); assay: (§1) Induction of calcium release in human FPR2 receptor-expressed HEK cell by cytosolic-free calcium assay; assay type: functional, cell-based, HEK293
T2 sequence (P25090 whole entry): T1 sequence (whole entry)

[6] = target: T1, N-formyl peptide receptor 2 (Homo sapiens); assay: as §1; assay type: functional, cell-based; settings: HEK293
[7] = tested on: Mus musculus; assay: Induction of leukocyte recruitment in C57BL/6 mouse assessed as increase in number of neutrophils in blood at 40 ug, ip tid relative to NaCl treated control; assay type: functional, organism-based
[8] = tested on: Monocyte; assay: Induction of ERK1/2-mediated directional migration in human monocytes assessed as fluorescence of calcein at 10 uM after 45 mins by chemotaxis assay in presence of natural compound; assay type: functional, cell-based
[9] = tested on: Escherichia coli; assay: Induction of membrane disruption in Escherichia coli assessed as bacterial leakage by measuring Gal-ONp hydrolysis; assay type: organism-based
[10] = tested on: Neutrophil; assay: Induction of ERK1/2-mediated directional migration in human neutrophils assessed as fluorescence of calcein at 10 uM after 45 mins by chemotaxis assay in presence of PD98059 MEK1/2 inhibitor; assay type: functional, cell-based
[11] = tested on: Neutrophil; assay: Induction of migration in human neutrophils at 10 uM after 45 mins by chemotaxis assay in presence of preincubation of 0.1 uM fMLP; assay type: functional, cell-based
[12] = tested on: Neutrophil; assay: Induction of migration in human neutrophils preincubated at 10 uM after 45 mins by chemotaxis assay in presence of 10 uM fMLP; assay type: functional, cell-based
[13] = tested on: Neutrophil; assay: Induction of ERK1/2-mediated directional migration in human neutrophils assessed as fluorescence of calcein at 10 uM after 45 mins by chemotaxis assay in presence of natural compound; assay type: functional, cell-based
[14] = tested on: T-cell; assay: Induction of ERK1/2-mediated directional migration in human T cell assessed as fluorescence of calcein at 10 uM after 45 mins by chemotaxis assay; assay type: functional, cell-based
[15] = tested on: Monocyte; assay: Induction of ERK1/2-mediated directional migration in mouse monocytes assessed as fluorescence of calcein at 10 uM after 45 mins by chemotaxis assay in presence of natural compound; assay type: functional, cell-based
[16] = target: T3, Formyl peptide receptor-related sequence 1 (Mus musculus, UniProt O08790); assay: (§2) Induction of calcium release in mouse FPR2 receptor-expressed HEK cell by cytosolic-free calcium assay; assay type: functional, HEK293
T3 sequence (O08790 whole entry): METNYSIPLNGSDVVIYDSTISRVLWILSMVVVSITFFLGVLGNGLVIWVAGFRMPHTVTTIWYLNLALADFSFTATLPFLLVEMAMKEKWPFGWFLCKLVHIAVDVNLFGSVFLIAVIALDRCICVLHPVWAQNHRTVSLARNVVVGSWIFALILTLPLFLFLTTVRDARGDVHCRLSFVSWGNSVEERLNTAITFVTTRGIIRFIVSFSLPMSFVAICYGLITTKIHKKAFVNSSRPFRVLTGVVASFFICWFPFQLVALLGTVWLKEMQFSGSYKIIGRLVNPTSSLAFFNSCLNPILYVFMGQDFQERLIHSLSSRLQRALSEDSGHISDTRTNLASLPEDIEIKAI

[17] = target: T4, Formyl peptide receptor-related sequence 1 (Mus musculus) (UniProt O08790); assay: as §2; assay type: functional; settings: HEK293
T4 sequence (whole entry): T3 sequence (O08790 whole entry)

[18] = tested on: Mus musculus; assay: Induction of leukocyte recruitment in C57BL/6 mouse assessed as increase in number of neutrophils in blood at 40 ug, ip tid 4 hr before pretreated with 3% thioglycollate relative to NaCl treated control; assay type: functional, organism-based
[19] = tested on: Neutrophil; assay: Induction of ERK1/2-mediated directional migration in human neutrophils assessed as fluorescence of calcein at 10 uM after 45 mins by chemotaxis assay in presence of pertussis toxin; assay type: functional, cell-based
[20] = tested on: Monocyte; assay: Induction of ERK1/2-mediated directional migration in mouse monocytes assessed as fluorescence of calcein at 10 uM after 45 mins by chemotaxis assay; assay type: functional, cell-based
[21] = tested on: Neutrophil; assay: Induction of ERK1/2-mediated directional migration in human neutrophils assessed as fluorescence of calcein at 10 uM after 45 mins by chemotaxis assay; assay type: functional, cell-based
[22] = tested on: Neutrophil; assay: Induction of ERK1/2-mediated directional migration in human neutrophils assessed as fluorescence of calcein at 10 uM after 45 mins by chemotaxis assay in presence of SB202190 MAPK inhibitor; assay type: functional, cell-based
[23] = tested on: Mus musculus; assay: Induction of leukocyte recruitment in C57BL/6 mouse assessed as increase in number of monocytes in blood at 40 ug, ip tid 4 hr before pretreated with 3% thioglycollate relative to NaCl treated control; assay type: functional, organism-based
[24] = tested on: Staphylococcus aureus; assay: Antibacterial activity against Staphylococcus aureus ATCC 25923; assay type: functional
[25] = tested on: Mus musculus; assay: Induction of leukocyte recruitment in C57BL/6 mouse assessed as increase in number of macrophages in peritoneal cavity at 40 ug, ip tid 4 hr before pretreated with 3% thioglycollate relative to NaCl treated control; assay type: functional, organism-based
[26] = tested on: Monocyte; assay: Induction of ERK1/2-mediated directional migration in human monocytes assessed as fluorescence of calcein at 10 uM after 45 mins by chemotaxis assay; assay type: functional, cell-based
[27] = Hemolytic activity in fresh rat erythrocytes assessed as optical density after 60 mins; assay type: ADME, cell-based; settings: erythrocyte, 1 h
[28] = tested on: Mus musculus; assay: Induction of leukocyte recruitment in C57BL/6 mouse assessed as increase in number of monocytes in peritoneal cavity at 40 ug, ip tid 4 hr before pretreated with 3% thioglycollate relative to NaCl treated control; assay type: functional, organism-based
[29] = tested on: HEK293; assay: Induction of HEK cell migration at 10 uM; assay type: functional, cell-based; settings: Homo sapiens
[30] = tested on: Neutrophil; assay: Induction of migration in human neutrophils at 10 uM after 45 mins by chemotaxis assay in presence of preincubation of 10 uM fMLP; assay type: functional, cell-based
[31] = tested on: Mus musculus; assay: Induction of leukocyte recruitment in C57BL/6 mouse assessed as increase in number of neutrophils in peritoneal cavity at 40 ug, ip tid relative to NaCl treated control; assay type: functional, organism-based
[32] = tested on: Neutrophil; assay: Induction of ERK1/2-mediated directional migration in mouse neutrophils assessed as fluorescence of calcein at 10 uM after 45 mins by chemotaxis assay in presence of natural compound; assay type: functional, cell-based
[33] = target: T1, N-formyl peptide receptor 2 (Homo sapiens); assay: Binding affinity to human FPR2 receptor expressed in HEK cells assessed as heat release at 155 nmol by isothermal titration calorimetry; settings: HEK293
[34] = tested on: Mus musculus; assay: Induction of leukocyte recruitment in C57BL/6 mouse assessed as increase in number of macrophages in blood at 40 ug, ip tid 4 hr before pretreated with 3% thioglycollate relative to NaCl treated control; assay type: functional, organism-based
[35] = tested on: Mus musculus; assay: Induction of leukocyte recruitment in C57BL/6 mouse assessed as increase in number of monocytes in peritoneal cavity at 40 ug, ip tid relative to NaCl treated control; assay type: functional, organism-based
[36] = tested on: Mus musculus; assay: Induction of leukocyte recruitment in C57BL/6 mouse assessed as increase in number of neutrophils in peritoneal cavity at 40 ug, ip tid 4 hr before pretreated with 3% thioglycollate relative to NaCl treated control; assay type: functional, organism-based
[37] = tested on: Escherichia coli; assay: Antibacterial activity against Escherichia coli ATCC 11775; assay type: functional
[38] = tested on: T-cell; assay: Induction of ERK1/2-mediated directional migration in human T cell assessed as fluorescence of calcein at 10 uM after 45 mins by chemotaxis assay in presence of natural compound; assay type: functional, cell-based
[39] = tested on: Neutrophil; assay: Induction of ERK1/2-mediated directional migration in mouse neutrophils assessed as fluorescence of calcein at 10 uM after 45 mins by chemotaxis assay; assay type: functional, cell-based
[40] = target: T4, Formyl peptide receptor-related sequence 1 (Mus musculus); assay: Induction of mouse FPR2 receptor-expressed HEK cell migration at 10 uM; settings: HEK293
[41] = tested on: HEK293; assay: Induction of calcium release in HEK cell at 10 uM by cytosolic-free calcium assay; assay type: functional, cell-based; settings: Homo sapiens
[42] = tested on: Neutrophil; assay: Induction of migration in human neutrophils preincubated at 10 uM after 45 mins by chemotaxis assay in presence of 0.1 uM fMLP; assay type: functional, cell-based
[43] = tested on: Neutrophil; assay: Induction of ERK1/2-mediated directional migration in human neutrophils assessed as enzyme phosphorylation at 10 uM by chemotaxis assay; assay type: functional, cell-based; settings: TDE = time-dependent effect
[44] = tested on: Mus musculus; assay: Induction of leukocyte recruitment in C57BL/6 mouse assessed as increase in number of monocytes in blood at 40 ug, ip tid relative to NaCl treated control; assay type: functional, organism-based

Activity [1]: inactive
Molecule: CSCC[C@H](NC=O)C(=O)N[C@@H](CC(C)C)C(=O)N[C@@H](Cc1ccccc1)C(=O)O
Activity [2]: inactive | Activity [3]: Active

Molecule: H-SSLSKL-OH
Activity [4]: Active | EC50 [5]: 7.5 µM | Activity [6]: Dose-dependent effect | Activity [7]: Active | Activity [8]: inactive | Activity [9]: Non-toxic | Activity [10]: inactive | Activity [11]: inactive | Activity [12]: Active | Activity [13]: inactive | Activity [14]: Active | Activity [15]: inactive | EC50 [16]: 9 µM | Activity [17]: Dose-dependent effect | Activity [18]: inactive | Activity [19]: inactive | Activity [20]: Active | Activity [21]: Active | Activity [1]: inactive | Activity [22]: inactive | Activity [23]: inactive | MIC [24]: > 100 µM | Activity [25]: inactive | Activity [26]: Active | Activity [27]: Non-toxic | Activity [28]: inactive | Activity [29]: inactive | Activity [30]: Active | Activity [31]: Active | Activity [32]: inactive | Activity [33]: Active | Activity [34]: inactive | Activity [3]: Active | Activity [35]: Active | Activity [36]: inactive | MIC [37]: > 100 µM | Activity [38]: inactive | Activity [39]: Active | Activity [40]: Active | Activity [41]: inactive | Activity [42]: Active | Activity [43]: tde | Activity [44]: Active
